{"source": "patent US20170065593A1", "about": "“Combination” (Novartis AG, priority 2009, published 2017)", "assay_in_all_cases": "Cell growth inhibition assay (Cell Titer Glo, 3 days)", "assay_type_in_all_cases": "cell-based, Human", "key": {"MV522": {"test_system": "MV522", "conditions": "MV522 (BRAF_V600E), single agent, mean ± std", "protocol": "(§1) Human tumor cell lines from lung cancer, A427, A549, Calu1, Calu3, Calu6, COR-L23, HOP62, MV522, NCI-H1155, NCI-H1299, NCI-H1355, NCI-H1395, NCI-H157, NCI-H1573, NCI-H1666, NCI-1755, NCI-H1792, NCI-2009, NCI-H2030, NCI-H2122, NCI-H2291, NCI-H23, NCI-H2347, NCI-H358, NCI-H441, NCI-H460, NCI-H650, NCI-H727, SW1573 and SW900 were cultured in RPMI 1640 medium containing 10% fetal bovine serum (FBS). Cell line mutation data was collated for the status for the RAS and RAF genes. The data source is the cancer cell line mutation screening data published as part of the Catalog of Somatic Mutations in Cancer database (COSMIC) (Bamford S. et al. Br. J. Cancer. 2004. 91:355-58) and/or in house DNA sequencing.\n(§2) Cells were seeded in a 96-well tissue culture plate (NUNC 136102) of RPMI medium containing 10% FBS at 500-2,000 cells per well. Approximately 24 hours after plating, cells were exposed to ten, two-fold or three-fold serial dilutions of either Compound A or B or the combination of the two agents at a 10:1 molar ratio (Compounds A and B respectively). The final dosing concentration range for Compound A was 2-1000 nM and was 0.2-100 nM for Compound B. Cells were incubated in the presence of compounds for 3 days. ATP levels were determined by adding Cell Titer Glo® (Promega) according to the manufacturer's protocol. Briefly, Cell Titer Glo® was added to each plate, incubated for 20 minutes then luminescent signal was read on the SpectraMax L plate reader with a 0.5 sec integration time. All assays were run at least in duplicate.\n(§3) Inhibition of cell growth was estimated after treatment with compound or combination of compounds for three days and comparing the signal to cells treated with vehicle (DMSO). Cell growth was calculated relative to vehicle (DMSO) treated control wells. Concentration of compound that inhibits 50% of control cell growth (IC50) was back-interpolated when y=50% of DMSO treated control wells using nonlinear regression with the equation: […]"}, "NCI-H727": {"test_system": "NCI-H727", "conditions": "NCI-H727 (KRAS_G12V), single agent, mean ± std", "protocol": "as §1, §2, §3"}, "NCI-H1355": {"test_system": "NCI-H1355", "conditions": "NCI-H1355 (KRAS_G13C), single agent, mean ± std", "protocol": "as §1, §2, §3"}, "SW900": {"test_system": "SW900", "conditions": "SW900 (KRAS_G12V), single agent, mean ± std", "protocol": "as §1, §2, §3"}, "HOP62": {"test_system": "HOP62", "conditions": "HOP62 (KRAS_G12C), single agent, mean ± std", "protocol": "as §1, §2, §3"}, "A549": {"test_system": "A549", "conditions": "A549 (KRAS_G12S), single agent, mean ± std", "protocol": "as §1, §2, §3"}, "A427": {"test_system": "A427", "conditions": "A427 (KRAS_G12D), single agent, mean ± std", "protocol": "as §1, §2, §3"}, "NCI-H650": {"test_system": "NCI-H650", "conditions": "NCI-H650 (KRAS_Q61L), single agent, mean ± std", "protocol": "as §1, §2, §3"}, "NCI-H1299": {"test_system": "NCI-H1299", "conditions": "NCI-H1299 (NRAS_Q61K), single agent, mean ± std", "protocol": "as §1, §2, §3"}, "NCI-H1155": {"test_system": "NCI-H1155", "conditions": "NCI-H1155 (KRAS_Q61H), single agent, mean ± std", "protocol": "as §1, §2, §3"}, "NCI-H1395": {"test_system": "NCI-H1395", "conditions": "NCI-H1395 (BRAF_G469A), single agent, mean ± std", "protocol": "as §1, §2, §3"}, "Calu1": {"test_system": "Calu1", "conditions": "Calu1 (KRAS_G12C), single agent, mean ± std", "protocol": "as §1, §2, §3"}, "NCI-H1666": {"test_system": "NCI-H1666", "conditions": "NCI-H1666 (BRAF_G466V), single agent, mean ± std", "protocol": "as §1, §2, §3"}, "NCI-H1792": {"test_system": "NCI-H1792", "conditions": "NCI-H1792 (KRAS_G12C), single agent, mean ± std", "protocol": "as §1, §2, §3"}, "NCI-H157": {"test_system": "NCI-H157", "conditions": "NCI-H157 (KRAS_G12R), single agent, mean ± std", "protocol": "as §1, §2, §3"}, "Calu6": {"test_system": "Calu6", "conditions": "Calu6 (KRAS_Q61K), single agent, mean ± std", "protocol": "as §1, §2, §3"}, "NCI-H1573": {"test_system": "NCI-H1573", "conditions": "NCI-H1573 (KRAS-G12A), single agent, mean ± std", "protocol": "as §1, §2, §3"}, "NCI-H441": {"test_system": "NCI-H441", "conditions": "NCI-H441 (KRAS_G12V), single agent, mean ± std", "protocol": "as §1, §2, §3"}, "NCI-H460": {"test_system": "NCI-H460", "conditions": "NCI-H460 (KRAS_Q61H), single agent, mean ± std", "protocol": "as §1, §2, §3"}, "SW1573": {"test_system": "SW1573", "conditions": "SW1573 (KRAS_G12C), single agent, mean ± std", "protocol": "as §1, §2, §3"}, "[1]": {"conditions": "Homo sapiens, 72 h, read-out: IC50 Single Agent Compound B"}, "[2]": {"conditions": "read-out: IC50 Single Agent Compound A"}}, "note": "Read-outs that look alike come from different tables or passages of the source."}
{"compound": "CO[C@H]1C[C@@H]2CC[C@@H](C)[C@@](O)(O2)C(=O)C(=O)N2CCCC[C@H]2C(=O)O[C@H]([C@H](C)C[C@@H]2CC[C@@H](OCCO)[C@H](OC)C2)CC(=O)[C@H](C)/C=C(\\C)[C@@H](O)[C@@H](OC)C(=O)[C@H](C)C[C@H](C)/C=C/C=C/C=C/1C", "note": "[Compound B, everolimus]", "values": [{"measurement": "IC50", "setting": "MV522; [1]", "value": "> 100", "unit": "nM"}, {"measurement": "IC50", "setting": "NCI-H727; [1]", "value": "> 100", "unit": "nM"}, {"measurement": "IC50", "setting": "NCI-H1355; [1]", "value": "> 100", "unit": "nM"}, {"measurement": "IC50", "setting": "SW900; [1]", "value": "> 100", "unit": "nM"}, {"measurement": "IC50", "setting": "HOP62; Homo sapiens, HOP-62, 72 h, read-out: IC50 Single Agent Compound B", "value": "> 100", "unit": "nM"}, {"measurement": "IC50", "setting": "A549; [1]", "value": "3 ± 3", "unit": "nM"}, {"measurement": "IC50", "setting": "A427; Homo sapiens, A-427, 72 h, read-out: IC50 Single Agent Compound B", "value": "> 100", "unit": "nM"}, {"measurement": "IC50", "setting": "NCI-H650; [1]", "value": "> 100", "unit": "nM"}, {"measurement": "IC50", "setting": "NCI-H1299; [1]", "value": "> 100", "unit": "nM"}, {"measurement": "IC50", "setting": "NCI-H1155; [1]", "value": "> 100", "unit": "nM"}, {"measurement": "IC50", "setting": "NCI-H1395; [1]", "value": "> 100", "unit": "nM"}, {"measurement": "IC50", "setting": "Calu1; Homo sapiens, Calu-1, 72 h, read-out: IC50 Single Agent Compound B", "value": "> 100", "unit": "nM"}, {"measurement": "IC50", "setting": "NCI-H1666; [1]", "value": "> 100", "unit": "nM"}, {"measurement": "IC50", "setting": "NCI-H1792; [1]", "value": "> 100", "unit": "nM"}, {"measurement": "IC50", "setting": "NCI-H157; [1]", "value": "> 100", "unit": "nM"}, {"measurement": "IC50", "setting": "Calu6; Homo sapiens, Calu-6, 72 h, read-out: IC50 Single Agent Compound B", "value": "> 100", "unit": "nM"}, {"measurement": "IC50", "setting": "NCI-H1573; [1]", "value": "> 100", "unit": "nM"}, {"measurement": "IC50", "setting": "NCI-H441; [1]", "value": "> 100", "unit": "nM"}, {"measurement": "IC50", "setting": "NCI-H460; [1]", "value": "> 70", "unit": "nM"}, {"measurement": "IC50", "setting": "SW1573; [1]", "value": "> 100", "unit": "nM"}]}
{"compound": "N-{3-[3-cyclopropyl-5-(2-fluoro-4-iodo-phenylamino)6,8-dimethyl;-2,4,7-trioxo-3,4,6,7-tetrahydro-2H-pyrido[4,3-d]pyrimidin-1-yl]phenyl}acetamide [Compound A]", "values": [{"measurement": "IC50", "setting": "MV522; [2]", "value": 1, "unit": "nM"}, {"measurement": "IC50", "setting": "NCI-H727; [2]", "value": "3 ± 1", "unit": "nM"}, {"measurement": "IC50", "setting": "NCI-H1355; [2]", "value": "67 ± 24", "unit": "nM"}, {"measurement": "IC50", "setting": "SW900; [2]", "value": "141 ± 2", "unit": "nM"}, {"measurement": "IC50", "setting": "HOP62; [2]", "value": "> 1000", "unit": "nM"}, {"measurement": "IC50", "setting": "A549; [2]", "value": "32 ± 9", "unit": "nM"}, {"measurement": "IC50", "setting": "A427; [2]", "value": "95 ± 68", "unit": "nM"}, {"measurement": "IC50", "setting": "NCI-H650; [2]", "value": "4 ± 2", "unit": "nM"}, {"measurement": "IC50", "setting": "NCI-H1299; [2]", "value": "277 ± 92", "unit": "nM"}, {"measurement": "IC50", "setting": "NCI-H1155; [2]", "value": "> 1000", "unit": "nM"}, {"measurement": "IC50", "setting": "NCI-H1395; [2]", "value": "> 1000", "unit": "nM"}, {"measurement": "IC50", "setting": "Calu1; [2]", "value": "> 1000", "unit": "nM"}, {"measurement": "IC50", "setting": "NCI-H1666; [2]", "value": "44 ± 46", "unit": "nM"}, {"measurement": "IC50", "setting": "NCI-H1792; [2]", "value": "59 ± 23", "unit": "nM"}, {"measurement": "IC50", "setting": "NCI-H157; [2]", "value": "> 1000", "unit": "nM"}, {"measurement": "IC50", "setting": "Calu6; [2]", "value": 5, "unit": "nM"}, {"measurement": "IC50", "setting": "NCI-H1573; [2]", "value": "82 ± 11", "unit": "nM"}, {"measurement": "IC50", "setting": "NCI-H441; [2]", "value": "> 1000", "unit": "nM"}, {"measurement": "IC50", "setting": "NCI-H460; [2]", "value": "37 ± 11", "unit": "nM"}, {"measurement": "IC50", "setting": "SW1573; [2]", "value": "> 1000", "unit": "nM"}]}
